From patent US11000033B2, “Ketone or oxime compound, and herbicide” (NISSAN CHEMICAL CORPORATION, priority 2014, dated 2021)

Key:
Type in all cases: in vivo
Alopecurus myosuroides = experiment: Test Example 4: herbicidal effect by soil treatment (symbol J); conditions: for J (Alopecurus myosuroides) herbicidal effect grade: application herbicide amount 320 g/ha
From the text: (§1) Herbicidal Effect Test by Soil Treatment
(§2) Sterilized diluvial soil was placed in a plastic box having a length of 21 cm, a width of 13 cm, and a depth of 7 cm. Each of the seeds of Digitaria ciliaris, Setaria viridis, Echinochloa crus-galli var. crus-galli, Avena fatua, Alopecurus myosuroides, Lolium multiflorum Lam., Apera spica-venti, Abutilon theophrasti, Amaranthus retroflexus, Chenopodium album, Stellaria media, Galium spurium, Veronica persica, corn, soybean, rice, wheat, beet, and rapeseed was sowed in a spot-like manner and was covered with the soil of a thickness of about 1.5 cm. Subsequently, the emulsion agent of the compound present invention prepared in accordance with Formulation Example 2 was diluted with water so as to be a predetermined herbicide amount and the diluted emulsion agent was uniformly applied to the surface of the soil with a small-size spray. The plastic box was placed in a greenhouse of 25° C. to 30° C. to grow plant. 3 weeks later from the herbicide application, the effect to each plant was investigated in accordance with the criteria of Test Example 1.

soybean [1] = experiment: Test Example 4: effect on crop by soil treatment (symbol d); conditions: for d (soybean) effect on crop grade: application herbicide amount 320 g/ha
From the text: as §1
Sterilized diluvial soil was placed in a plastic box having a length of 21 cm, a width of 13 cm, and a depth of 7 cm. Each of the seeds of Digitaria ciliaris, Setaria viridis, Echinochloa crus-galli var. crus-galli, Avena fatua, Alopecurus myosuroides, Lolium multiflorum Lam., Apera spica-venti, Abutilon theophrasti, Amaranthus retroflexus, Chenopodium album, Stellaria media, Galium spurium, Veronica persica, corn, soybean, rice, wheat, beet, and rapeseed was sowed in a spot-like manner and was covered with the soil of a thickness of about 1.5 cm. […] The plastic box was placed in a greenhouse of 25° C. to 30° C. to grow plant.

Stellaria media = experiment: Test Example 4: herbicidal effect by soil treatment (symbol P); conditions: for P (Stellaria media) herbicidal effect grade: application herbicide amount 320 g/ha
From the text: as §1, §2

[2] = system: Echinochloa crus-galli var. crus-galli; experiment: Test Example 3: herbicidal effect by foliage application, Wagner pot (symbol H)
Method in brief: (§3)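 Seeds sown in alluvial soil kept under 0.1–0.5 cm water, greenhouse 25–30 °C; 14 d growth. Leaves treated by small sprayer with water-diluted emulsion at a predetermined rate. Effect graded by set scale, 3 weeks.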

Leptochloa chinensis = experiment: Test Example 3: herbicidal effect by foliage application, Wagner pot (symbol D)
Method in brief: as §3

transplanted rice plant = experiment: Test Example 1: effect on crop, application before weed generation in submerged conditions (symbol a)
Method in brief: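 Alluvial soil pots flooded to 4 cm water, sown with Echinochloa oryzacola, Scirpus juncoides and Monochoria vaginalis, then transplanted with 2.5 leaf stage rice seedlings; pre-emergence application. Greenhouse 25° C. to 30° C.; scored 0–5 by herbicidal ratio 3 weeks after application.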

Amaranthus retroflexus = experiment: Test Example 4: herbicidal effect by soil treatment (symbol N); conditions: for N (Amaranthus retroflexus) herbicidal effect grade: application herbicide amount 320 g/ha
From the text: as §1, §2

Cyperus difformis = experiment: Test Example 3: herbicidal effect by foliage application, Wagner pot (symbol E)
Method in brief: as §3

Apera spica-venti [3] = experiment: Test Example 4: herbicidal effect by soil treatment (symbol L); conditions: for L (Apera spica-venti) herbicidal effect grade: application herbicide amount 320 g/ha
From the text: as §1, §2

Setaria viridis = experiment: Test Example 5: herbicidal effect by foliage application, plastic box (symbol G); conditions: 3 weeks after application
Method in brief: (§4)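 Visual herbicidal score, taken three weeks post-application, of seedlings sprayed on the foliage with water-diluted emulsion at a predetermined amount; plants were 14 days old, greenhouse-raised at 25° C. to 30° C.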

Abutilon theophrasti = experiment: Test Example 5: herbicidal effect by foliage application, plastic box (symbol M); conditions: 3 weeks after application
Method in brief: as §4

soybean [4] = experiment: Test Example 5: effect on crop by foliage application, plastic box (symbol d); conditions: 3 weeks after application
Method in brief: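 A greenhouse held between 25° C. and 30° C. was used to grow plants sown spot-wise, beneath ~1.5 cm of soil, in boxes of sterilized diluvial soil.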

[5] = system: Echinochloa crus-galli var. crus-galli; experiment: Test Example 5: herbicidal effect by foliage application, plastic box (symbol H); conditions: 3 weeks after application
Method in brief: as §4

Apera spica-venti [6] = experiment: Test Example 5: herbicidal effect by foliage application, plastic box (symbol L); conditions: 3 weeks after application
Method in brief: as §4

[7] = application herbicide amount 269 g/ha
[8] = application herbicide amount 320 g/ha

Row | SMILES | J (Alopecurus myosuroides) herbicidal effect grade (Alopecurus myosuroides) | d (soybean) effect on crop grade (soybean [1]) | herbicidal effect on H (Echinochloa crus-galli var. crus-galli), grade 0-5 [2, 8] | herbicidal effect on D (Leptochloa chinensis), grade 0-5 (Leptochloa chinensis; [8]) | Effect grade on crop, a: transplanted rice plant (transplanted rice plant; [8]) | N (Amaranthus retroflexus) herbicidal effect grade (Amaranthus retroflexus) | herbicidal effect on E, grade 0-5 (Cyperus difformis; [8]) | L (Apera spica-venti) herbicidal effect grade (Apera spica-venti [3]) | G: Setaria viridis, herbicidal effect grade (Setaria viridis; 320 g/ha) | M: Abutilon theophrasti, herbicidal effect grade (Abutilon theophrasti; 320 g/ha) | d: soybean, effect on crop grade (soybean [4]; 320 g/ha) | H: Echinochloa crus-galli var. crus-galli, herbicidal effect grade ([5]; 320 g/ha) | L: Apera spica-venti, herbicidal effect grade (Apera spica-venti [6]; 320 g/ha) | P (Stellaria media) herbicidal effect grade (Stellaria media) | also measured
1 | CC(=O)C(C)C1CC(O)=C(c2c(C)cc(C)cc2C)C1=O (stereo not drawn) [2-005] | – | – | – | – | – | – | – | – | – | – | – | – | – | – | J: Alopecurus myosuroides, herbicidal effect grade (Alopecurus myosuroides; [7]): 4 (Herbicidal ratio of 70% or higher and lower than 90%); d: soybean, effect on crop grade (soybean [1]; [7]): 0 (Herbicidal ratio of 5% or lower (almost no effect)); P: Stellaria media, herbicidal effect grade (Stellaria media; [7]): 0 (Herbicidal ratio of 5% or lower (almost no effect)); herbicidal effect on H (Echinochloa crus-galli var. crus-galli), grade 0-5 [2, 7]: 5 (Herbicidal ratio of 90% or more (almost completely withered)); herbicidal effect on D (Leptochloa chinensis), grade 0-5 (Leptochloa chinensis; [7]): 5 (Herbicidal ratio of 90% or more (almost completely withered)); Effect grade on crop, a: transplanted rice plant (transplanted rice plant; [7]): 4 (Herbicidal ratio of 70% or higher and lower than 90%); N: Amaranthus retroflexus, herbicidal effect grade (Amaranthus retroflexus; [7]): 0 (Herbicidal ratio of 5% or lower (almost no effect)); herbicidal effect on E, grade 0-5 (Cyperus difformis; [7]): 4 (Herbicidal ratio of 70% or higher and lower than 90%); L: Apera spica-venti, herbicidal effect grade (Apera spica-venti [3]; [7]): 1 (Herbicidal ratio of 5% or higher and lower than 20%); G: Setaria viridis, herbicidal effect grade (Setaria viridis; 269 g/ha): 4 (Herbicidal ratio of 70% or higher and lower than 90%); M: Abutilon theophrasti, herbicidal effect grade (Abutilon theophrasti; 269 g/ha): 0 (Herbicidal ratio of 5% or lower (almost no effect)); d: soybean, effect on crop grade (soybean [4]; 269 g/ha): 0 (Herbicidal ratio of 5% or lower (almost no effect)); H: Echinochloa crus-galli var. crus-galli, herbicidal effect grade ([5]; 269 g/ha): 5 (Herbicidal ratio of 90% or more (almost completely withered)); L: Apera spica-venti, herbicidal effect grade (Apera spica-venti [6]; 269 g/ha): 3 (Herbicidal ratio of 40% or higher and lower than 70%)
2 | C=CCOC1=C(c2c(C)cc(C)cc2C)C(=O)C(CC(C)=NOC)C1 (stereo not drawn) [1-007] | 0 (Herbicidal ratio of 5% or lower (almost no effect)) | 0 (Herbicidal ratio of 5% or lower (almost no effect)) | 0 (Herbicidal ratio of 5% or lower (almost no effect)) | 5 (Herbicidal ratio of 90% or more (almost completely withered)) | 0 (Herbicidal ratio of 5% or lower (almost no effect)) | 0 (Herbicidal ratio of 5% or lower (almost no effect)) | 0 (Herbicidal ratio of 5% or lower (almost no effect)) | 3 (Herbicidal ratio of 40% or higher and lower than 70%) | 0 (Herbicidal ratio of 5% or lower (almost no effect)) | 0 (Herbicidal ratio of 5% or lower (almost no effect)) | 0 (Herbicidal ratio of 5% or lower (almost no effect)) | 0 (Herbicidal ratio of 5% or lower (almost no effect)) | 1 (Herbicidal ratio of 5% or higher and lower than 20%) | – | –
3 | CON=C(C)CC1CC(OC(C)=O)=C(c2c(C)cc(C)cc2C)C1=O (stereo not drawn) [1-005] | 5 (Herbicidal ratio of 90% or more (almost completely withered)) | 2 (Herbicidal ratio of 20% or higher and lower than 40%) | 5 (Herbicidal ratio of 90% or more (almost completely withered)) | 5 (Herbicidal ratio of 90% or more (almost completely withered)) | 5 (Herbicidal ratio of 90% or more (almost completely withered)) | 5 (Herbicidal ratio of 90% or more (almost completely withered)) | 5 (Herbicidal ratio of 90% or more (almost completely withered)) | 5 (Herbicidal ratio of 90% or more (almost completely withered)) | 5 (Herbicidal ratio of 90% or more (almost completely withered)) | 4 (Herbicidal ratio of 70% or higher and lower than 90%) | 4 (Herbicidal ratio of 70% or higher and lower than 90%) | 5 (Herbicidal ratio of 90% or more (almost completely withered)) | 5 (Herbicidal ratio of 90% or more (almost completely withered)) | 0 (Herbicidal ratio of 5% or lower (almost no effect)) | –
4 | CON=C(C)CC1CC(OC(=O)CN(C)C(=O)c2ccccc2)=C(c2c(C)cc(C)cc2C)C1=O (stereo not drawn) [1-139] | – | – | 5 (Herbicidal ratio of 90% or more (almost completely withered)) | 5 (Herbicidal ratio of 90% or more (almost completely withered)) | 5 (Herbicidal ratio of 90% or more (almost completely withered)) | – | 5 (Herbicidal ratio of 90% or more (almost completely withered)) | – | – | – | – | – | – | – | J: Alopecurus myosuroides, herbicidal effect grade (Alopecurus myosuroides; 320 g/ha): 5 (Herbicidal ratio of 90% or more (almost completely withered)); d: soybean, effect grade on crop (soybean [1]; 320 g/ha): 0 (Herbicidal ratio of 5% or lower (almost no effect)); P: Stellaria media, herbicidal effect grade (Stellaria media; 320 g/ha): 0 (Herbicidal ratio of 5% or lower (almost no effect)); N: Amaranthus retroflexus, herbicidal effect grade (Amaranthus retroflexus; 320 g/ha): 3 (Herbicidal ratio of 40% or higher and lower than 70%); L: Apera spica-venti, herbicidal effect grade (Apera spica-venti [3]; 320 g/ha): 5 (Herbicidal ratio of 90% or more (almost completely withered)); G: Setaria viridis, herbicidal effect (criteria 0-5) (Setaria viridis; 320 g/ha): 5 (Herbicidal ratio of 90% or more (almost completely withered)); M: Abutilon theophrasti, herbicidal effect (criteria 0-5) (Abutilon theophrasti; 320 g/ha): 2 (Herbicidal ratio of 20% or higher and lower than 40%); d: soybean, effect on crop (criteria 0-5) (soybean [4]; 320 g/ha): 1 (Herbicidal ratio of 5% or higher and lower than 20%); H: Echinochloa crus-galli var. crus-galli, herbicidal effect (criteria 0-5) ([5]; 320 g/ha): 5 (Herbicidal ratio of 90% or more (almost completely withered)); L: Apera spica-venti, herbicidal effect (criteria 0-5) (Apera spica-venti [6]; 320 g/ha): 5 (Herbicidal ratio of 90% or more (almost completely withered))
5 | CON=C(C)CC1CC(OC(=O)C(C)(C)C)=C(c2c(C)cc(C)cc2C)C1=O (stereo not drawn) [1-004, 2-mesityl-4-{2-(methoxyimino)propyl}-3-oxocyclopent-1-en-1-yl pivalate] | 5 (Herbicidal ratio of 90% or more (almost completely withered)) | 3 (Herbicidal ratio of 40% or higher and lower than 70%) | 5 (Herbicidal ratio of 90% or more (almost completely withered)) | 5 (Herbicidal ratio of 90% or more (almost completely withered)) | 5 (Herbicidal ratio of 90% or more (almost completely withered)) | 5 (Herbicidal ratio of 90% or more (almost completely withered)) | 5 (Herbicidal ratio of 90% or more (almost completely withered)) | 5 (Herbicidal ratio of 90% or more (almost completely withered)) | 5 (Herbicidal ratio of 90% or more (almost completely withered)) | 4 (Herbicidal ratio of 70% or higher and lower than 90%) | 4 (Herbicidal ratio of 70% or higher and lower than 90%) | 5 (Herbicidal ratio of 90% or more (almost completely withered)) | 5 (Herbicidal ratio of 90% or more (almost completely withered)) | 0 (Herbicidal ratio of 5% or lower (almost no effect)) | –
